Assay results taken from patent US7846918B2, “Exemestane compounds, compositions and related methods of use” (Endece, LLC, priority 2005, dated 2010).
Each block holds one compound with its values, some of them ahead of it.

What was measured:
Assay type in all cases: cell-based
MV 522 = assay: MTS cell growth inhibition assay, MV 522; conditions: MV522, MV 522, Lung; for inhibition at 200 µM: read-out: Mean Percent Response at 200 μM (percent of cell growth inhibited); for IC50: mean of 2 independent trials
Protocol: (§1) Activity Of 6-Methyloxamethyl Exemestane Compounds Against Cancer Cell Lines. Cancer-derived cell lines were used for the following growth inhibition assay. The ability of the compound of Formula (B) above and the compound of Formula (D) above to inhibit cancer-derived cell growth was compared to exemestane as a control.
(§2) Cell viability is determined using the MTS assay. This calorimetric procedure measures conversion of the MTS reagent (a tetrazoleum salt) to formazan by living cells. Formazan production is quantified by spectrophotometric measurement at 490 nm and is proportional to viable cell number. Cells are cultured and treated. Following treatment, 100 μl of growth medium is removed and cells incubated with 20 μl CellTiter 96® AQueous One Solution Reagent (1.9 mg/ml in PBS, pH 6.0) for 1-3 hours at 37° C. Absorbance (OD) values are measured using a μQuant microplate reader at a single wavelength of 490 nm.
(§3) Additional assays were performed to evaluate the growth-inhibiting activity of the compound of Formula (B) above and the compound of Formula (D) compared to exemestane as a control.

Capan-1 = assay: MTS cell growth inhibition assay, Capan-1; conditions: Homo sapiens, Capan-1, Pancreas; for inhibition at 200 µM: read-out: Mean Percent Response at 200 μM (percent of cell growth inhibited); for IC50: mean of 2 independent trials
Protocol: as §1, §2, §3

[1] = system: a variety of cancer cell lines; assay: Growth inhibition across the cancer cell line panel; conditions: for activity against cancer cell lines, in words: text summary of Tables 1-3
Protocol: as §1, §2, §3

SK-OV-3 = assay: MTS cell growth inhibition assay, SK-OV-3; conditions: Homo sapiens, SK-OV-3, Ovarian; for inhibition at 200 µM: read-out: Mean Percent Response at 200 μM (percent of cell growth inhibited); for IC50: mean of 2 independent trials
Protocol: as §1, §2, §3

MCF-7 = assay: MTS cell growth inhibition assay, MCF-7; conditions: Homo sapiens, MCF7, MCF-7, Breast; for inhibition at 200 µM: read-out: Mean Percent Response at 200 μM (percent of cell growth inhibited); for IC50: mean of 2 independent trials
Protocol: as §1, §2, §3

PC-3 = assay: MTS cell growth inhibition assay, PC-3; conditions: Homo sapiens, PC-3, Prostrate; for inhibition at 200 µM: read-out: Mean Percent Response at 200 μM (percent of cell growth inhibited); for IC50: mean of 2 independent trials
Protocol: as §1, §2, §3

HT-29 = assay: MTS cell growth inhibition assay, HT-29; conditions: Homo sapiens, HT-29, Colon; for inhibition at 200 µM: read-out: Mean Percent Response at 200 μM (percent of cell growth inhibited); for IC50: mean of 2 independent trials
Protocol: as §1, §2, §3

Capan-2 = assay: MTS cell growth inhibition assay, Capan-2; conditions: Homo sapiens, Capan-2, Pancreas; for inhibition at 200 µM: read-out: Mean Percent Response at 200 μM (percent of cell growth inhibited); for IC50: mean of 2 independent trials
Protocol: as §1, §2, §3

NIH: H23 = assay: MTS cell growth inhibition assay, NIH: H23; conditions: NIH: H23, Lung; for inhibition at 200 µM: read-out: Mean Percent Response at 200 μM (percent of cell growth inhibited); for IC50: mean of 2 independent trials
Protocol: as §1, §2, §3

MDA-MB-231 = assay: MTS cell growth inhibition assay, MDA-MB-231; conditions: Homo sapiens, MDA-MB-231, Breast; for inhibition at 200 µM: read-out: Mean Percent Response at 200 μM (percent of cell growth inhibited); for IC50: mean of 2 independent trials
Protocol: as §1, §2, §3

NIH: OVCAR-3 = assay: MTS cell growth inhibition assay, NIH: OVCAR-3; conditions: Homo sapiens, NIH: OVCAR-3, Ovarian; for inhibition at 200 µM: read-out: Mean Percent Response at 200 μM (percent of cell growth inhibited); for IC50: mean of 2 independent trials
Protocol: as §1, §2, §3

Structure (SMILES): COC[C@@H]1C[C@@H]2[C@H](CC[C@]3(C)C(=O)CC[C@@H]23)[C@@]2(C)C=CC(=O)C=C12 [Exemestane 6R]
- inhibition at 200 µM (MV 522): 96%
- IC50 (MV 522): 95 µM
- inhibition at 200 µM (Capan-1): 28%
- IC50 (Capan-1): 176 µM
- inhibition at 200 µM ([1]; see Table 2, 200 μM, read-out: inhibition against a variety of cancer cell lines): 95 to 98%
- inhibition at 200 µM (SK-OV-3): 98%
- IC50 (SK-OV-3): 106 µM
- inhibition at 200 µM (MCF-7): 56%
- IC50 (MCF-7): > 200 µM
- inhibition at 200 µM (PC-3): 78%
- IC50 (PC-3): 108 µM
- inhibition at 200 µM (HT-29): 80%
- IC50 (HT-29): 110 µM
- inhibition at 200 µM (Capan-2): 46%
- IC50 (Capan-2): 104 µM
- inhibition at 200 µM (NIH: H23): 65%
- IC50 (NIH: H23): 106 µM
- inhibition at 200 µM (MDA-MB-231): 95%
- IC50 (MDA-MB-231): 77 µM
- inhibition at 200 µM (NIH: OVCAR-3): 78%
- IC50 (NIH: OVCAR-3): 54 µM

Structure (SMILES): COC[C@H]1C[C@@H]2[C@H](CC[C@]3(C)C(=O)CC[C@@H]23)[C@@]2(C)C=CC(=O)C=C12 [Exemestane 6S]
- inhibition at 200 µM (MV 522): 19%
- IC50 (MV 522): > 200 µM
- inhibition at 200 µM (Capan-1): 5%
- IC50 (Capan-1): > 200 µM
- activity against cancer cell lines, in words [1]: works best against cell lines that are estrogen (−) and/or aromatase (+)
- inhibition at 200 µM (SK-OV-3): 0.3%
- IC50 (SK-OV-3): > 200 µM
- inhibition at 200 µM (MCF-7): 0%
- IC50 (MCF-7): > 200 µM
- inhibition at 200 µM (PC-3): 0%
- IC50 (PC-3): > 200 µM
- inhibition at 200 µM (HT-29): 8%
- IC50 (HT-29): > 200 µM
- inhibition at 200 µM (Capan-2): 15%
- IC50 (Capan-2): > 200 µM
- inhibition at 200 µM (NIH: H23): 12%
- IC50 (NIH: H23): > 200 µM
- inhibition at 200 µM (MDA-MB-231): 21%
- IC50 (MDA-MB-231): > 200 µM
- inhibition at 200 µM (NIH: OVCAR-3): 6%
- IC50 (NIH: OVCAR-3): > 200 µM

- IC50 (SK-OV-3): 78 µM
- IC50 (MCF-7): 96 µM
- IC50 (PC-3): 105 µM
- IC50 (HT-29): 103 µM
- IC50 (MDA-MB-231): 64 µM
- IC50 (NIH: OVCAR-3): 73 µM
Structure (SMILES): C=C1C[C@@H]2[C@H](CC[C@]3(C)C(=O)CC[C@@H]23)[C@@]2(C)C=CC(=O)C=C12 [Exemestane, 6-methylenandrosta-1,4-diene-3,17-dione]
- inhibition at 200 µM (MV 522): 79%
- IC50 (MV 522): 103 µM
- inhibition at 200 µM (Capan-1): 74%
- IC50 (Capan-1): 98 µM
- activity against cancer cell lines, in words [1]: marginal activity
- inhibition at 200 µM (SK-OV-3): 85%
- inhibition at 200 µM (MCF-7): 68%
- inhibition at 200 µM (PC-3): 67%
- inhibition at 200 µM (HT-29): 75%
- inhibition at 200 µM (Capan-2): 56%
- IC50 (Capan-2): 94 µM
- inhibition at 200 µM (NIH: H23): 81%
- IC50 (NIH: H23): 50 µM
- inhibition at 200 µM (MDA-MB-231): 67%
- inhibition at 200 µM (NIH: OVCAR-3): 88%
